Measurements from patent publication US20200038514A1, “FOLATE CONJUGATE FOR USE IN TARGETING TUMOR ASSOCIATED MACROPHAGES” (ENDOCYTE, INC., priority 2016, published 2020).

Legend:
ST070 ovarian PDX tumors = test: In vivo activity against ovarian tumors; design: species or system mice; settings: Conjugate 5 0.5 μmol/kg SIW; EC1456 4.0 μmol/kg SIW; paclitaxel 15 mg/kg SIW; two weeks
Procedure: (§1) Mice were maintained and tumor volumes were measures according to Method 3.
Primary human Ovarian model ST070 fragments (2-4 mm in diameter) were inoculated subcutaneously at the right flank of each mouse. Mice were randomized into experimental groups of 7 mice each and test articles were injected through the lateral tail vein under sterile conditions in a volume of […] of phosphate-buffered saline (PBS).

TNBC PDX tumor = test: In vivo activity against triple negative breast tumors (FIG. 10); design: species or system mice; settings: Conjugate 5 0.27 μmol/kg BIW two weeks; erubulin mesylate 1.0 μmol/kg SIW two weeks
Procedure: as §1
Primary human TNBC model ST502 (2-4 mm in diameter) or primary human TNBC model ST738 (2-4 mm in diameter) were inoculated subcutaneously at the right flank of each mouse. Mice were randomized into experimental groups of 7 mice each and test articles were injected through the lateral tail vein under sterile conditions in a volume of […] of phosphate-buffered saline (PBS).

Compound	ovarian PDX tumor size compared to untreated control (ST070 ovarian PDX tumors)	TNBC PDX tumor size compared to untreated control (TNBC PDX tumor)
CC(=O)O[C@H]1C(=O)[C@@]2(C)[C@H]([C@H](OC(=O)c3ccccc3)[C@]3(O)C[C@H](OC(=O)[C@H](O)[C@@H](NC(=O)c4ccccc4)c4ccccc4)C(C)=C1C3(C)C)[C@]1(OC(C)=O)CO[C@@H]1C[C@@H]2O [paclitaxel, reference compound]	did not decrease ovarian PDX tumor size	
erubulin mesylate [reference compound]		did not decrease TNBC PDX tumor size
